# Patent publication US20100092526A1, “NANOEMULSION THERAPEUTIC COMPOSITIONS AND METHODS OF USING THE SAME” (NanoBio Corporation, priority 2008, published 2010)
# Read-outs that look alike come from different tables or passages of the source.
# Tests used:
# [1] = test system: Pseudomonas aeruginosa; assay: MIC/MBC against CF isolates (CLSI, alamar blue); details: Pseudomonas aeruginosa
# [2] = test system: Acinetobacter baumannii; assay: MIC/MBC of nanoemulsions against gram-negative isolates (CLSI, alamar blue); type: cell-based; details: Acinetobacter baumannii (n = 5)
# [3] = test system: Stenotrophomonas maltophilia; assay: as above; type: cell-based; details: Stenotrophomonas maltophilia (n = 5); nanoemulsions in the presence of 5 mM EDTA
# [4] = test system: Proteus mirabilis; assay: as above; type: cell-based; details: Proteus mirabilis (n = 5)
# [5] = test system: Escherichia coli; assay: as above; type: cell-based; details: Escherichia coli (n = 5)
# [6] = test system: Burkholderia cenocepacia; assay: MIC/MBC against CF isolates (CLSI, alamar blue); details: for MBC / MIC: Burkholderia cenocepacia
# [7] = test system: Burkholderia cepacia; assay: MIC/MBC of nanoemulsions against gram-negative isolates (CLSI, alamar blue); type: cell-based; details: Burkholderia cepacia (n = 5), nanoemulsions in the presence of 5 mM EDTA
# [8] = test system: Pseudomonas aeruginosa; assay: as above; type: cell-based; details: Pseudomonas aeruginosa (n = 5)
# [9] = test system: Klebsiella pneumoniae; assay: as above; type: cell-based; details: Klebsiella pneumoniae (n = 5)
# [10] = test system: Stenotrophomonas maltophilia; assay: MIC/MBC against CF isolates (CLSI, alamar blue); details: for MBC / MIC: Stenotrophomonas maltophilia
# [11] = test system: Acinetobacter baumannii; assay: MIC/MBC against clinical isolates (CLSI, alamar blue)
# [12] = nanoemulsions in the presence of 5 mM EDTA
# [13] = nanoemulsions in the presence of 5 mM EDTA, in µg/mL
# [14] = CF Stenotrophomonas isolate NB41
# [15] = CF Stenotrophomonas isolate NB42
# [16] = CF Stenotrophomonas isolate NB43
# [17] = CF Stenotrophomonas isolate NB44
# [18] = CF Stenotrophomonas isolate NB45
# [19] = CF Stenotrophomonas isolate Steno 1
# [20] = CF Stenotrophomonas isolate Steno 2
# [21] = CF Stenotrophomonas isolate Steno 3
# [22] = CF Stenotrophomonas isolate Steno 4
# [23] = CF Stenotrophomonas isolate Steno 6
# [24] = CF Stenotrophomonas isolate Steno 8
# [25] = Stenotrophomonas, each drug alone
# [26] = Acinetobacter baumannii, Acinetobacter isolate NB31
# [27] = Acinetobacter baumannii, Acinetobacter isolate NB32
# [28] = Acinetobacter baumannii, Acinetobacter isolate NB33
# [29] = Acinetobacter baumannii, Acinetobacter isolate NB34
# [30] = Acinetobacter baumannii, Acinetobacter isolate NB35
# [31] = Acinetobacter baumannii, Acinetobacter isolate NB36
# [32] = Acinetobacter baumannii, Acinetobacter isolate NB37
# [33] = Acinetobacter baumannii, Acinetobacter isolate NB38
# [34] = Acinetobacter baumannii, Acinetobacter isolate NB39
# [35] = Acinetobacter baumannii, Acinetobacter isolate NB40
smiles,measurement,setting,value
NC[C@H]1O[C@H](O[C@H]2[C@H](O)[C@@H](O[C@H]3O[C@H](CO)[C@@H](O)[C@H](N)[C@H]3O)[C@H](N)C[C@@H]2N)[C@H](N)C[C@@H]1O [Tobramycin],MIC50,[1],1 µg/mL
same,MIC90,[1],16 µg/mL
same,MBC,[1]; CF Pseudomonas isolate NB1,16 µg/mL
same,MIC,[1]; CF Pseudomonas isolate NB1,1 µg/mL
same,MBC,[1]; CF Pseudomonas isolate NB2,2 µg/mL
same,MIC,[1]; CF Pseudomonas isolate NB2,0.25 µg/mL
same,MBC,[1]; CF Pseudomonas isolate NB3,4 µg/mL
same,MIC,[1]; CF Pseudomonas isolate NB3,0.5 µg/mL
same,MBC,[1]; CF Pseudomonas isolate NB4,4 µg/mL
same,MIC,[1]; CF Pseudomonas isolate NB4,0.5 µg/mL
same,MBC,[1]; CF Pseudomonas isolate NB5,4 µg/mL
same,MIC,[1]; CF Pseudomonas isolate NB5,0.5 µg/mL
same,MBC,[1]; CF Pseudomonas isolate NB6,4 µg/mL
same,MIC,[1]; CF Pseudomonas isolate NB6,0.5 µg/mL
same,MBC,[1]; CF Pseudomonas isolate NB7,> 16 µg/mL
same,MIC,[1]; CF Pseudomonas isolate NB7,1 µg/mL
same,MBC,[1]; CF Pseudomonas isolate NB8,8 µg/mL
same,MIC,[1]; CF Pseudomonas isolate NB8,1 µg/mL
same,MBC,[1]; CF Pseudomonas isolate NB9,8 µg/mL
same,MIC,[1]; CF Pseudomonas isolate NB9,1 µg/mL
same,MBC,[1]; CF Pseudomonas isolate NB10,4 µg/mL
same,MIC,[1]; CF Pseudomonas isolate NB10,0.5 µg/mL
same,MBC,[1]; CF Pseudomonas isolate NB11,4 µg/mL
same,MIC,[1]; CF Pseudomonas isolate NB11,2 µg/mL
same,MBC,[1]; CF Pseudomonas isolate NB12,8 µg/mL
same,MIC,[1]; CF Pseudomonas isolate NB12,0.5 µg/mL
same,MBC,[1]; CF Pseudomonas isolate NB13,4 µg/mL
same,MIC,[1]; CF Pseudomonas isolate NB13,1 µg/mL
same,MBC,[1]; CF Pseudomonas isolate NB14,> 32 µg/mL
same,MIC,[1]; CF Pseudomonas isolate NB14,32 µg/mL
same,MBC,[1]; CF Pseudomonas isolate NB15,8 µg/mL
same,MIC,[1]; CF Pseudomonas isolate NB15,0.5 µg/mL
same,MBC,[1]; CF Pseudomonas isolate NB16,16 µg/mL
same,MIC,[1]; CF Pseudomonas isolate NB16,2 µg/mL
same,MBC,[1]; CF Pseudomonas isolate NB17,32 µg/mL
same,MIC,[1]; CF Pseudomonas isolate NB17,16 µg/mL
same,MBC,[1]; CF Pseudomonas isolate NB18,> 32 µg/mL
same,MIC,[1]; CF Pseudomonas isolate NB18,16 µg/mL
same,MBC,[1]; CF Pseudomonas isolate NB19,16 µg/mL
same,MIC,[1]; CF Pseudomonas isolate NB19,2 µg/mL
same,MBC,[1]; CF Pseudomonas isolate NB20,8 µg/mL
same,MIC,[1]; CF Pseudomonas isolate NB20,0.5 µg/mL
same,MBC,"[1]; read-out: MBC 50, 20 CF Pseudomonas isolates",8 µg/mL
same,MBC,"[1]; read-out: MBC 50, second MBC 50 line of the summary, Stenotrophomonas, values equal those of the CF Pseudomonas isolates",8 µg/mL
same,MBC,"[1]; read-out: MBC 90, 20 CF Pseudomonas isolates",> 16 µg/mL
same,MBC,"[1]; read-out: MBC 90, second MBC 90 line of the summary, Stenotrophomonas, values equal those of the CF Pseudomonas isolates",> 16 µg/mL
same,% resistant,[2],20.0%
same,% susceptible,[2],80.0%
same,MIC50,[2]; [12],0.5 µg/mL
same,MIC50,[3],> 16 µg/mL
same,% resistant,[4],0.0%
same,% susceptible,[4],100.0%
same,MIC50,[4]; [12],1 µg/mL
same,MIC Range,[4]; [13],0.25-1
same,% resistant,[5],20.0%
same,% susceptible,[5],80.0%
same,MIC50,[5]; [12],0.5 µg/mL
same,MIC Range,[5]; [13],0.25-16
same,MBC,[6]; CF Burkholderia isolate NB21,> 32 µg/mL
same,MIC,[6]; CF Burkholderia isolate NB21,32 µg/mL
same,MBC,[6]; CF Burkholderia isolate NB22,> 32 µg/mL
same,MIC,[6]; CF Burkholderia isolate NB22,> 32 µg/mL
same,MBC,[6]; CF Burkholderia isolate NB23,> 32 µg/mL
same,MIC,[6]; CF Burkholderia isolate NB23,> 32 µg/mL
same,MBC,[6]; CF Burkholderia isolate NB24,> 32 µg/mL
same,MIC,[6]; CF Burkholderia isolate NB24,> 32 µg/mL
same,MBC,[6]; CF Burkholderia isolate NB25,> 32 µg/mL
same,MIC,[6]; CF Burkholderia isolate NB25,> 32 µg/mL
same,MBC,[6]; CF Burkholderia isolate NB26,> 32 µg/mL
same,MIC,[6]; CF Burkholderia isolate NB26,> 32 µg/mL
same,MBC,[6]; CF Burkholderia isolate NB27,> 32 µg/mL
same,MIC,[6]; CF Burkholderia isolate NB27,> 32 µg/mL
same,MBC,[6]; CF Burkholderia isolate NB28b,4 µg/mL
same,MIC,[6]; CF Burkholderia isolate NB28b,1 µg/mL
same,MBC,[6]; CF Burkholderia isolate NB29,> 32 µg/mL
same,MIC,[6]; CF Burkholderia isolate NB29,> 32 µg/mL
same,MBC,[6]; CF Burkholderia isolate NB30,32 µg/mL
same,MIC,[6]; CF Burkholderia isolate NB30,32 µg/mL
same,MBC 50,"[6]; Burkholderia, each drug alone",>32 µg/mL
same,MBC 90,"[6]; Burkholderia, each drug alone",>32 µg/mL
same,MIC90,"[6]; Burkholderia, each drug alone",>32 µg/mL
same,MIC50,[7],> 16 µg/mL
same,MIC Range,[7]; in µg/mL,>16
same,% resistant,[8],0.0%
same,% susceptible,[8],100.0%
same,MIC50,[8]; [12],0.5 µg/mL
same,MIC Range,[8]; [13],0.25-1
same,% resistant,[9],20.0%
same,% susceptible,[9],80.0%
same,MIC50,[9]; [12],0.25 µg/mL
same,MIC Range,[9]; [13],0.25-16
same,MBC,[10]; [14],> 32 µg/mL
same,MIC,[10]; [14],> 32 µg/mL
same,MBC,[10]; [15],> 32 µg/mL
same,MIC,[10]; [15],32 µg/mL
same,MBC,[10]; [16],> 32 µg/mL
same,MIC,[10]; [16],> 32 µg/mL
same,MBC,[10]; [17],> 32 µg/mL
same,MIC,[10]; [17],> 32 µg/mL
same,MBC,[10]; [18],> 32 µg/mL
same,MIC,[10]; [18],> 32 µg/mL
same,MBC,[10]; [19],> 32 µg/mL
same,MIC,[10]; [19],> 32 µg/mL
same,MBC,[10]; [20],> 32 µg/mL
same,MIC,[10]; [20],> 32 µg/mL
same,MBC,[10]; [21],> 32 µg/mL
same,MIC,[10]; [21],> 32 µg/mL
same,MBC,[10]; [22],> 32 µg/mL
same,MIC,[10]; [22],> 32 µg/mL
same,MBC,[10]; [23],32 µg/mL
same,MIC,[10]; [23],16 µg/mL
same,MBC,[10]; [24],> 32 µg/mL
same,MIC,[10]; [24],> 32 µg/mL
same,MBC 50,[10]; [25],>32 µg/mL
same,MBC 90,[10]; [25],>32 µg/mL
same,MIC50,[10]; [25],>32 µg/mL
same,MIC90,[10]; [25],>32 µg/mL
same,MIC50,[11]; Acinetobacter baumannii,1 µg/mL
same,MIC90,[11]; Acinetobacter baumannii,16 µg/mL
same,MBC,[11]; [26],1 µg/mL
same,MIC,[11]; [26],1 µg/mL
same,MBC,[11]; [27],4 µg/mL
same,MIC,[11]; [27],1 µg/mL
same,MBC,[11]; [28],8 µg/mL
same,MIC,[11]; [28],2 µg/mL
same,MBC,[11]; [29],> 32 µg/mL
same,MIC,[11]; [29],16 µg/mL
same,MBC,[11]; [30],16 µg/mL
same,MIC,[11]; [30],2 µg/mL
same,MBC,[11]; [31],0.5 µg/mL
same,MIC,[11]; [31],0.5 µg/mL
same,MBC,[11]; [32],2 µg/mL
same,MIC,[11]; [32],0.5 µg/mL
same,MBC,[11]; [33],16 µg/mL
same,MIC,[11]; [33],1 µg/mL
same,MBC,[11]; [34],4 µg/mL
same,MIC,[11]; [34],2 µg/mL
same,MBC,[11]; [35],> 32 µg/mL
same,MIC,[11]; [35],> 32 µg/mL
same,MBC,"[11]; Acinetobacter baumannii, read-out: MBC 50, 10 Acinetobacter isolates",4 µg/mL
same,MBC,"[11]; Acinetobacter baumannii, read-out: MBC 50, Acinetobacter, each drug alone",4 µg/mL
same,MBC 90,"[11]; Acinetobacter, each drug alone",>32 µg/mL
same,MIC50,"[11]; Acinetobacter, each drug alone",1 µg/mL
same,MIC90,"[11]; Acinetobacter, each drug alone",16 µg/mL
